From PubChem BioAssay (NCI)
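These data come from cells grown in 96-well plates and exposed to compound for 48 hours at five concentrations. TGI is the concentration that stops growth completely.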

Columns and labels:
Experiment in all cases: NCI anticancer screen, dose series, 48 h
U251 CNS = test system: U251 CNS
UO-31 renal = test system: UO-31 renal
SK-MEL-28 melanoma = test system: SK-MEL-28 melanoma
CAKI-1 renal = test system: CAKI-1 renal
SK-MEL-5 melanoma = test system: SK-MEL-5 melanoma
MDA-N = test system: MDA-N
OVCAR-3 ovarian = test system: OVCAR-3 ovarian
SF-295 CNS = test system: SF-295 CNS
KM12 colon = test system: KM12 colon
HS 578T breast = test system: HS 578T breast
786-0 renal = test system: 786-0 renal
SR leukemia = test system: SR leukemia
UACC-257 melanoma = test system: UACC-257 melanoma
SK-MEL-2 melanoma = test system: SK-MEL-2 melanoma
HCC-2998 colon = test system: HCC-2998 colon
T-47D breast = test system: T-47D breast
SNB-19 CNS = test system: SNB-19 CNS

Compound	TGI (U251 CNS) [µM]	TGI (UO-31 renal) [µM]	TGI (SK-MEL-28 melanoma) [µM]	TGI (CAKI-1 renal) [µM]	TGI (SK-MEL-5 melanoma) [µM]	TGI (MDA-N) [µM]	TGI (OVCAR-3 ovarian) [µM]	TGI (SF-295 CNS) [µM]	TGI (KM12 colon) [µM]	TGI (HS 578T breast) [µM]	TGI (786-0 renal) [µM]	TGI (SR leukemia) [µM]	TGI (UACC-257 melanoma) [µM]	TGI (SK-MEL-2 melanoma) [µM]	TGI (HCC-2998 colon) [µM]	TGI (T-47D breast) [µM]	TGI (SNB-19 CNS) [µM]
OC(Cc1cnnc2ccccc12)C(Cl)(Cl)Cl (stereo unspecified)	> 10	> 10	> 10	> 10	> 10	> 10	> 10	> 10	> 10	> 10	> 10	> 10	> 10	> 10	> 10	> 10	> 10
O=C(O)CCC1C(=O)C2CCN1CC2 (stereo unspecified)	> 100	> 100	> 100	> 100	> 100	> 100	> 100	> 100	> 100	> 100	> 100	> 100	> 100	> 100	> 100	> 100	> 100
COC(=O)NCCc1[nH]nc2c1C(=O)C=C(Nc1ccccc1OC)C2=O	72.5	> 100	95.9	94.6	27.1	35.1	> 100	> 100	64.4	99.7	> 100	86.1	35.6	> 100	40.3	> 100	> 100
CSc1ccccc1NC1=NCCO1	> 100	> 100	> 100	> 100	> 100	> 100	> 100	> 100	> 100	> 100	> 100	> 100	> 100	> 100	> 100	> 100	> 100
CCOC(=O)/C1=C(\C)N(Cc2ccccc2)C(=O)c2ccccc2C(=O)c2c(OC(C)=O)ccc(OC(C)=O)c21	> 100	> 100	> 100	> 100	> 100	> 100	80.9	> 100	> 100	> 100	> 100	> 100	> 100	> 100	37.4	> 100	> 100
CC1CCC2C(C)C(OC(=O)CCC(=O)O)OC3OC4(C)CCC1C32OO4 (stereo unspecified)	31.3	3.88	> 100	> 100	17.7	38.7	> 100	> 100	23	> 100	> 100	3.37	> 100	42.3	54.3	> 100	> 100
CN1CC=C(C#CC(C)(C)O)CC1	> 37.5	> 37.5	> 37.5	> 37.5	> 37.5	> 37.5	> 37.5	> 37.5	> 37.5	> 37.5	> 37.5	> 37.5	> 37.5	> 37.5	> 37.5	> 37.5	> 37.5
CN1CCOC1(C)c1ccccc1 (stereo unspecified)	> 100	> 100	> 100	> 100	> 100	> 100	> 100	> 100	> 100	> 100	> 100	> 100	> 100	> 100	> 100	> 100	> 100
